According to patent publication US6552087B1 (Abbott GmbH & Co. KG, priority 1999, dated 2003):
Counter-ions that a name gives are not always drawn.

What was measured:
[1] = molecular target: T1, noradrenaline reuptake site (Rattus norvegicus, UniProt Q63380); test: Noradrenaline reuptake site binding assay in rat brain ([3H]nisoxetine); settings: for Hill slope, NA reuptake site: rat frontal cortex, [3H]nisoxetine, mean ± SEM
T1 construct: Adult male CD rats were killed by cervical dislocation, brains removed and frontal cortices (120-150 mg) immediately dissected; from tissue; host or cells: rat frontal cortex membranes (Sprague-Dawley derived CD rats)
Method: (§1) The IC50 was calculated using the following formula: [formula]
The supernatant was discarded and the pellet rehomogenised in Tris buffer, 1:60 w/v, and centrifuged at 40,000 g for 10 minutes. This step was repeated a further twice so that, in total, the brain tissue was homogenised and centrifuged four times. […] All centrifugations were carried out at 4° C.

dopamine reuptake site [2] = molecular target: T2, dopamine reuptake site (Rattus norvegicus, UniProt P23977); test: Dopamine reuptake site binding assay in rat brain ([3H]GBR 12935); settings: for Hill slope, DA reuptake site: rat striatum, [3H]GBR 12935, mean ± SEM
T2 construct: from tissue; host or cells: rat striatal membranes (Sprague-Dawley derived CD rats)
Method: as §1
Tissue was homogenised in ice-cold 0.32 M sucrose (1:80 w/v) using a motor driven teflon pestle (12 strokes, 800 rpm) and centrifuged at 1000 g for 12 minutes. […] All centrifugations were carried out at 4° C.

[3] = molecular target: T3, noradrenaline reuptake site (Homo sapiens, UniProt P23975); test: Noradrenaline reuptake site binding assay in human brain ([3H]nisoxetine); settings: human thalamus, mean ± SEM
T3 construct: Frozen thalamus was homogenised in ice-cold 0.25 M sucrose (1:40 w/v); from tissue; host or cells: human post-mortem thalamus membranes
Method: as §1
The pellet was resuspended in Tris buffer (1:40 w/v) and incubated at 37° C. for 10 min (to remove endogenous neurotransmitters) and recentrifuged at 35,000 g for 10 minutes. […] All centrifugations were carried out at 4° C.

dopamine reuptake site [4] = molecular target: T4, dopamine reuptake site (Homo sapiens, UniProt Q01959); test: Dopamine reuptake site binding assay in human brain ([3H]GBR 12935); settings: for Hill slope, DA reuptake site: human putamen, [3H]GBR 12935, mean ± SEM
T4 construct: Frozen putamen was homogenised in ice-cold 0.25 M sucrose (1:40 w/v); from tissue; host or cells: human post-mortem putamen membranes
Method: as §1
The membrane pellet was resuspended in Tris buffer (1:40 w/v) and incubated at 37° C. for 10 min (to remove endogenous neurotransmitters) and recentrifuged at 35,000 g for 10 minutes. […] All centrifugations were carried out at 4° C.

mice [5] = test: Porsolt test in mice; format: in vivo; settings: Mus musculus, dose required to increase mobility by 50%
Method: This test was carried out according to the procedure described in Porsolt, R. D. (1981). Behavioural despair. In: Antidepressants: Neurochemical, Behavioural and Clinical Perspectives, ed. […] New York: Raven Press.
(§2) The test compounds were dissolved in deionised water. Control groups of mice were treated with either deionised water or the standard antidepressant, amitriptyline (30 mg/kg p.o.).
Data from the Porsolt test were analysed in two ways.

mice [6] = test: Reserpine reversal screen in mice; format: in vivo; settings: Mus musculus, ip, reversal of reserpine-induced effects, reserpine 10 mg/kg i.p., read-out: ED50, Reserpine test in mice
Method: This was carried as described in U.S. Pat. No. 4,746,680 except that the dose of reserpine was 10 mg/kg (i.p.).
as §2
(§3) Data from the reserpine reversal screen in mice and the reserpine prevention test in rats were used to calculate ED50 values for the reversal and prevention of reserpine-induced effects respectively.

rats = test: Prevention of reserpine-induced ptosis in rats; format: in vivo; settings: Rattus norvegicus, read-out: ED50, Reserpine test in rats
Method: A further standard test for antidepressants but relying on the ability of compounds to prevent rather than reverse reserpine-induced effects in rodents.
The compounds were tested as described in Prog. Neuro-Psychopharmacol. & Biol. Psychiat., 12, 575-584, Buckett et al. Rats were housed five per cage rather than six per cage and ptosis was assessed twice during 60 sec rather than during 30 sec.
as §3

T2 sequence (P23977 whole entry): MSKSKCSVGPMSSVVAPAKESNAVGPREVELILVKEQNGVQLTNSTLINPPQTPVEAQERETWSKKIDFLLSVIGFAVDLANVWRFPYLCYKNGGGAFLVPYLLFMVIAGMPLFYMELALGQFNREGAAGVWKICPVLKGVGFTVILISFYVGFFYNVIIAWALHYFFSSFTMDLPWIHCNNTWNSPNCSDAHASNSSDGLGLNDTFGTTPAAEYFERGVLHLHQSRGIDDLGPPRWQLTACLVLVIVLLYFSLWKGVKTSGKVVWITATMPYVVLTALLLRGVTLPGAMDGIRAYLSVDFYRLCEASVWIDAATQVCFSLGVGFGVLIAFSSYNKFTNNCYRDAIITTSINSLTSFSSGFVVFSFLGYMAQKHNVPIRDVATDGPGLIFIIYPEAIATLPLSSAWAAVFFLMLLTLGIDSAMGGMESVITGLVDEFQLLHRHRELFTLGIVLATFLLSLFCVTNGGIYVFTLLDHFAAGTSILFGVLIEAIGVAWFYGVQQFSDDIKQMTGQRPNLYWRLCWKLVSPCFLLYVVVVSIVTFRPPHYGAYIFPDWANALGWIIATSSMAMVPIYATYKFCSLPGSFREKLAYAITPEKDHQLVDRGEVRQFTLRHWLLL
T3 sequence (P23975 whole entry): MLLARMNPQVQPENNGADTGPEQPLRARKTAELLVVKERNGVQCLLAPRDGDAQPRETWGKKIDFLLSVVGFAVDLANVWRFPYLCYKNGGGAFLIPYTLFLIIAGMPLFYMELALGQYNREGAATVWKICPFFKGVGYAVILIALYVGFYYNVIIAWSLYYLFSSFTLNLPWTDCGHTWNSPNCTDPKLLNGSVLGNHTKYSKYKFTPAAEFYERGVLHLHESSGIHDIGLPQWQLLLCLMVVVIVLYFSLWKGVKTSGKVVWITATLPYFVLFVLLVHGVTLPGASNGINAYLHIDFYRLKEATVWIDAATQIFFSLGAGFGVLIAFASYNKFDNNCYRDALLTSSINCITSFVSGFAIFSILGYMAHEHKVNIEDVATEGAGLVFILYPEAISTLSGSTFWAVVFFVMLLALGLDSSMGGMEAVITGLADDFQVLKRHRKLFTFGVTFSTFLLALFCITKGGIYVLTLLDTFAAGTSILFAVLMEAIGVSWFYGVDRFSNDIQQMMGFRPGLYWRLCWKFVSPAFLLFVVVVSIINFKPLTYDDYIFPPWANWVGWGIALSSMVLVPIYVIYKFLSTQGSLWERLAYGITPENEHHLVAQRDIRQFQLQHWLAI
T1 sequence (Q63380 1-617): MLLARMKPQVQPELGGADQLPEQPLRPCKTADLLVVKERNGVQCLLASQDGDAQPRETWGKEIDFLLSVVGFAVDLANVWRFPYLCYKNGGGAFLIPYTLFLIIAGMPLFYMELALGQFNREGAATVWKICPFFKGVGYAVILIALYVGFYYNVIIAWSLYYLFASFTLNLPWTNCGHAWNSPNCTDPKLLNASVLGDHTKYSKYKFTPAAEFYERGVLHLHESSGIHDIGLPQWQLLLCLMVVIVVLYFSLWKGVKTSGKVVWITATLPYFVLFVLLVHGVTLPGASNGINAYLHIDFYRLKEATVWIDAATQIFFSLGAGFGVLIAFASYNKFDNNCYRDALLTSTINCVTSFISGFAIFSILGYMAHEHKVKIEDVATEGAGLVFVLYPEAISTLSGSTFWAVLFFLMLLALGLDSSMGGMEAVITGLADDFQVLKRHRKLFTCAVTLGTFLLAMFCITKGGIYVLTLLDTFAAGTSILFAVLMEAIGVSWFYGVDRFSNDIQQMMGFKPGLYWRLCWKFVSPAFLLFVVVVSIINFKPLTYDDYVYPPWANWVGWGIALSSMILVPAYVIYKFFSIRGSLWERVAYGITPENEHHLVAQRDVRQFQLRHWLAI
T4 sequence (Q01959 whole entry): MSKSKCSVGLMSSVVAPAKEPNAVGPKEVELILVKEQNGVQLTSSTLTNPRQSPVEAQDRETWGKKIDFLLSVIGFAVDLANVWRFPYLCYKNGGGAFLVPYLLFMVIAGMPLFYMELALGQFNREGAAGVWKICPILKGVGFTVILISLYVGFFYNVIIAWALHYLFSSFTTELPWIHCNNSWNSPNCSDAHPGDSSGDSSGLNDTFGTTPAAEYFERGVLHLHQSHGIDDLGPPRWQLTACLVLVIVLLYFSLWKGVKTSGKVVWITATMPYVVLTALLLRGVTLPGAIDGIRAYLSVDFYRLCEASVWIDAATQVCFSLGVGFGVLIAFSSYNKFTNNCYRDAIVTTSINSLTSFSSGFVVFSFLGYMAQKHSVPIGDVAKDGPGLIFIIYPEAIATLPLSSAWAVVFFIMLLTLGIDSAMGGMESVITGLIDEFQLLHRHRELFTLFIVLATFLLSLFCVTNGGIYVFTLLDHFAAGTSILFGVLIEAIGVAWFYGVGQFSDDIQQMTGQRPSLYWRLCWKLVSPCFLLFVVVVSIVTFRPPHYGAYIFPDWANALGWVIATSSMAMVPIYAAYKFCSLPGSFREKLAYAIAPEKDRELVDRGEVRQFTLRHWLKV

| SMILES | Ki [1] | Hill slope, NA reuptake site [1] | Ki (dopamine reuptake site [2]) | Hill slope, DA reuptake site (dopamine reuptake site [2]) | Hill slope, NA reuptake site [3] | Ki (dopamine reuptake site [4]) | Hill slope, DA reuptake site (dopamine reuptake site [4]) | ED50 (mice [5]) | ED50 (mice [6]) | ED50 (rats) |
| --- | --- | --- | --- | --- | --- | --- | --- | --- | --- | --- |
| CC(C)CC(N(C)C)C1(c2ccc(Cl)cc2)CCC1 (racemic) [Sibutramine, N,N-dimethyl-1-[1-(4-chlorophenyl)cyclobutyl]-3-methylbutylamine] | 86 ± 10 nM | [1.02 ± 0.02] | 3070 ± 50 nM | [1.14 ± 0.04] | [1.34 ± 0.01] | 943 ± 64 nM | [1.15 ± 0.04] | 1.8 mg/kg | 1.8 mg/kg | ~1.5 mg/kg |
| CC(C)C[C@@H](N(C)C)C1(c2ccc(Cl)cc2)CCC1 [(+)-Sibutramine, hydrochloride] | 3040 ± 233 nM | [1.02 ± 0.06] | 1650 ± 175 nM | [1.74 ± 0.20] | [0.97 ± 0.13] | 897 ± 125 nM | [1.29 ± 0.04] | 2.4 mg/kg | ~1 mg/kg | 0.7 mg/kg |
| CC(C)C[C@H](N(C)C)C1(c2ccc(Cl)cc2)CCC1.Cl [(−)-Sibutramine, (−)-N-{1-[1-(4-chlorophenyl)cyclobutyl]-3-methylbutyl}-N,N-dimethylamine hydrochloride] | 23800 ± 615 nM | [1.02 ± 0.08] | 4480 ± 65 nM | [2.07 ± 0.16] | [1.30 ± 0.04] | 2890 ± 363 nM | [1.25 ± 0.05] | 9.8 mg/kg | ~30 mg/kg | 59 mg/kg |
